Measurements: the NIST ThermoML archive (doi:10.1021/je030147g)

What was measured:
[1] = refractive index (Na D-line) (dimensionless); xn = mol fraction of the nth substance listed; conditions: 101.33 kPa, Liquid
[2] = xn = mol fraction of the nth substance listed; conditions: 101.33 kPa, Liquid

CCCCN(CCCC)CCCC [tributylamine] + ClC(Cl)=C(Cl)Cl
Conditions	mass density, [2] [kg/m3]	refractive index, [1]	speed of sound, [2] [m/s]	viscosity, [2] [mPa·s]
298.15 K, x1 = 0.104	1433.8	1.4872	1052	0.917
298.15 K, x1 = 0.2059	1295.5	1.4748	1073	0.958
298.15 K, x1 = 0.3068	1185.4	1.4659	1094	0.996
298.15 K, x1 = 0.4073	1095	1.4566	1116	1.033
298.15 K, x1 = 0.4967	1026.9	1.4506	1136	1.065
298.15 K, x1 = 0.6069	955.4	1.4437	1162	1.104
298.15 K, x1 = 0.699	904.2	1.4396	1184	1.136
298.15 K, x1 = 0.8018	854.3	1.435	1209	1.172
298.15 K, x1 = 0.9007	812	1.4316	1235	1.206
298.15 K, x1 = 1	773.9	1.4276	1262	1.239
303.15 K, x1 = 0.104	1425.9	1.4842	–	0.869
303.15 K, x1 = 0.2059	1288.1	1.4721	–	0.902
303.15 K, x1 = 0.3068	1181.4	–	–	0.93
303.15 K, x1 = 0.4073	1089.1	1.4539	–	0.96
303.15 K, x1 = 0.4967	1021.5	1.4479	–	0.99
303.15 K, x1 = 0.6069	949.9	1.4415	–	1.018
303.15 K, x1 = 0.699	899.4	1.4367	–	1.053
303.15 K, x1 = 0.8018	849.4	1.4325	–	1.081
303.15 K, x1 = 0.9007	808	1.4289	–	1.104
303.15 K, x1 = 1	769.2	1.4255	–	1.124
308.15 K, x1 = 0.104	1418.2	1.481	–	0.818
308.15 K, x1 = 0.2059	1281.3	1.4692	–	0.844
308.15 K, x1 = 0.3068	1172.5	1.4594	–	0.869
308.15 K, x1 = 0.4073	1083.2	1.451	–	0.893
308.15 K, x1 = 0.4967	1015.9	1.445	–	0.914
308.15 K, x1 = 0.6069	945.2	1.4392	–	0.94
308.15 K, x1 = 0.699	894.7	1.434	–	0.961
308.15 K, x1 = 0.8018	845.3	1.4298	–	0.984
308.15 K, x1 = 0.9007	803.4	1.4263	–	1.006
308.15 K, x1 = 1	765.7	1.4228	–	1.028

CCCCN(CCCC)CCCC [tributylamine] + ClC=C(Cl)Cl
x1 = 1
Conditions	mass density, 298.15 K [kg/m3]	mass density, 303.15 K [kg/m3]	mass density, 308.15 K [kg/m3]	refractive index, 298.15 K	refractive index, 303.15 K	refractive index, 308.15 K	speed of sound, 298.15 K [m/s]	viscosity, 298.15 K [mPa·s]	viscosity, 303.15 K [mPa·s]	viscosity, 308.15 K [mPa·s]
[1]	–	–	–	1.4276	1.4255	1.4228	–	–	–	–
[2]	773.3	769.2	765.7	–	–	–	1262	1.239	1.124	1.028
